SMILES strings stand for the structures.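 Compound exposure: 48 hours, 5 concentrations, 96-well plates. TGI marks complete inhibition of growth.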

The source of these data is PubChem BioAssay (NCI).

Some test systems named below: MCF7 breast; ACHN renal; UACC-62 melanoma; SK-MEL-28 melanoma; CAKI-1 renal; BT-549 breast; MDA-MB-231 breast; NCI/ADR-RES ovarian; MDA-N; MDA-MB-435; CCRF-CEM leukemia; HOP-62 NSCLC; SNB-19 CNS; OVCAR-4 ovarian; HS 578T breast; HCC-2998 colon; SK-MEL-5 melanoma; HL-60(TB) leukemia; MALME-3M melanoma.
Common to all, as to experiment: NCI tumour cell line growth inhibition, 48 h

`CC1(C)C/C(=N/O)c2c(nc3ccc4ccccc4c3c2-c2ccc(Cl)cc2)C1`: the TGI was 24.1 µM in the assay on MCF7 breast; 19.4 µM in the assay on ACHN renal; 37.1 µM in the assay on UACC-62 melanoma; over 100 µM with SK-MEL-28 melanoma; 26.3 µM with CAKI-1 renal; 30.9 µM in the assay with BT-549 breast. The TGI is 24.4 µM in the assay on MDA-MB-231 breast; 39.3 µM with NCI/ADR-RES ovarian; over 100 µM in the assay on MDA-N; over 100 µM in the assay with MDA-MB-435; 27.6 µM in the assay with CCRF-CEM leukemia; 92.2 µM with HOP-62 NSCLC. In addition, the TGI with SNB-19 CNS was over 100 µM; in the assay with OVCAR-4 ovarian, 30.4 µM; in the assay on HS 578T breast it was 76.2 µM; with HCC-2998 colon, 43.8 µM; in the assay on SK-MEL-5 melanoma it was over 100 µM; in the assay on HL-60(TB) leukemia, 26.1 µM.
Turning to `C#C[C@]1(O)CC[C@H]2[C@@H]3CCC4=C/C(=N/NC(=O)c5cccc6cc7ccccc7nc56)CC[C@@H]4[C@H]3CC[C@@]21CC`, the TGI in the assay on MCF7 breast, with ACHN renal, in the assay on UACC-62 melanoma, in the assay with SK-MEL-28 melanoma, in the assay with CAKI-1 renal and in the assay with BT-549 breast was over 100 µM each time. The TGI in the assay with MDA-MB-231 breast, in the assay on NCI/ADR-RES ovarian, in the assay on MDA-N, in the assay on MDA-MB-435, in the assay with CCRF-CEM leukemia and with HOP-62 NSCLC was over 100 µM each time. Besides, the TGI with SNB-19 CNS is over 100 µM; with OVCAR-4 ovarian, over 100 µM; in the assay on HS 578T breast it was over 100 µM; in the assay on HCC-2998 colon it was over 100 µM; in the assay with SK-MEL-5 melanoma, 63.7 µM; in the assay with HL-60(TB) leukemia, over 100 µM.
On to `Nc1[nH]c(=S)c2c(N)n[nH]c2c1C(=O)Nc1ccccc1`, for which the TGI in the assay on MCF7 breast, with UACC-62 melanoma, in the assay with SK-MEL-28 melanoma, in the assay on CAKI-1 renal, in the assay with BT-549 breast and in the assay on MDA-MB-231 breast was over 100 µM each time. Also, the TGI in the assay with NCI/ADR-RES ovarian, with MDA-N, in the assay on MDA-MB-435, in the assay on SNB-19 CNS, in the assay on MALME-3M melanoma and in the assay on OVCAR-4 ovarian was over 100 µM in each case. Moreover, the TGI in the assay on HS 578T breast, in the assay on HCC-2998 colon, in the assay with SK-MEL-5 melanoma and with HL-60(TB) leukemia was over 100 µM throughout.
For the compound `C=CCN1C(=O)/C(=C/c2ccc(C)cc2)NC1=S`, the TGI in the assay with MCF7 breast, in the assay with ACHN renal, with UACC-62 melanoma, with SK-MEL-28 melanoma, with CAKI-1 renal and in the assay on BT-549 breast was over 100 µM in each case. Besides, the TGI in the assay on MDA-MB-231 breast, with NCI/ADR-RES ovarian, in the assay on MDA-N, in the assay with MDA-MB-435, in the assay with CCRF-CEM leukemia and in the assay on HOP-62 NSCLC was over 100 µM throughout. In addition, the TGI is over 100 µM in the assay with SNB-19 CNS; over 100 µM with OVCAR-4 ovarian; over 100 µM in the assay with HS 578T breast; over 100 µM with HCC-2998 colon; over 100 µM in the assay on SK-MEL-5 melanoma; 48.9 µM in the assay on HL-60(TB) leukemia.
With `COc1ccc(NC(=O)/C(=N/NC(N)=S)C2C(=O)NC(=S)NC2=O)c(OC)c1`, the TGI with MCF7 breast, with ACHN renal, in the assay on UACC-62 melanoma, with SK-MEL-28 melanoma, with CAKI-1 renal and in the assay with BT-549 breast was over 100 µM throughout. The TGI with MDA-MB-231 breast, in the assay on NCI/ADR-RES ovarian, with MDA-N, in the assay with MDA-MB-435, with CCRF-CEM leukemia and with SNB-19 CNS was over 100 µM each time. Further, the TGI with MALME-3M melanoma, in the assay with OVCAR-4 ovarian, in the assay on HS 578T breast, in the assay on HCC-2998 colon, in the assay on SK-MEL-5 melanoma and with HL-60(TB) leukemia was over 100 µM in each case.
`O=C(Nc1ccccc1)n1[nH]c(=O)n(-c2ccccc2)c1=O`: the TGI in the assay on MCF7 breast, in the assay with ACHN renal, in the assay on UACC-62 melanoma, in the assay on SK-MEL-28 melanoma, in the assay with CAKI-1 renal and in the assay on BT-549 breast was over 100 µM throughout. In addition, the TGI in the assay with MDA-MB-231 breast, in the assay with NCI/ADR-RES ovarian, in the assay with MDA-N, with MDA-MB-435, with CCRF-CEM leukemia and in the assay on SNB-19 CNS was over 100 µM in each case. The TGI in the assay on MALME-3M melanoma, in the assay with OVCAR-4 ovarian, in the assay on HS 578T breast, in the assay with HCC-2998 colon, in the assay with SK-MEL-5 melanoma and in the assay on HL-60(TB) leukemia was over 100 µM each time.
On to `COc1cccc(-c2nc3ccccc3c(=O)[nH]2)c1OC`, for which the TGI in the assay with MCF7 breast, in the assay on ACHN renal, with UACC-62 melanoma, in the assay with CAKI-1 renal, with BT-549 breast and in the assay with MDA-MB-231 breast was over 100 µM in each case. Moreover, the TGI in the assay on NCI/ADR-RES ovarian, with MDA-N, with MDA-MB-435, with CCRF-CEM leukemia, with HOP-62 NSCLC and with SNB-19 CNS was over 100 µM throughout. Also, the TGI in the assay on MALME-3M melanoma, with OVCAR-4 ovarian, with HS 578T breast, in the assay with HCC-2998 colon and in the assay on SK-MEL-5 melanoma was over 100 µM each time.
Turning to `CC(C)(C)c1ccc(-n2c3nc(=O)n(-c4ccccc4CO)c(=O)c-3cc3ccccc32)cc1`, the TGI with MCF7 breast, with ACHN renal, in the assay with UACC-62 melanoma, in the assay on SK-MEL-28 melanoma, in the assay on CAKI-1 renal and with BT-549 breast was over 100 µM each time. For the same compound, the TGI in the assay with MDA-MB-231 breast is over 100 µM; in the assay on NCI/ADR-RES ovarian, over 100 µM; in the assay on MDA-N it was 62.9 µM; with MDA-MB-435 it was 99.4 µM; in the assay on CCRF-CEM leukemia, 66.3 µM; with SNB-19 CNS, over 100 µM. For the same compound, the TGI in the assay with MALME-3M melanoma is over 100 µM; in the assay with OVCAR-4 ovarian, over 100 µM; in the assay on HS 578T breast, over 100 µM; with HCC-2998 colon it was over 100 µM; with SK-MEL-5 melanoma, over 100 µM; in the assay with HL-60(TB) leukemia, 56.1 µM.
